In the supplement of paper PMC10307832:

Key:
Experiment in all cases: relative viability (nuclei count vs DMSO), 5 days (fraction); higher = more cells survive
NCI-H522 = conditions: first compound 8 µM
Summary of the method: (§1)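 Cells from lung cancer lines were seeded into 1536-well plates and, one day later, dosed by pin tool. Treatments were either a single drug or a fixed dose of an anchor drug with five library-drug doses (not always all listed) in √10 steps. After 5 days, nuclei were stained in a one-step fixation (final 0.05% Triton X-100, 1% formaldehyde, 1 ug/ml Hoechst) and counted on 4× images, and relative viability is the treated-to-vehicle nuclei ratio, as the median of duplicate plates.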

HCC-78 = test system: HCC-78
Summary of the method: as §1

NCI-H1793 = test system: NCI-H1793
Summary of the method: as §1

A-427 = test system: A-427
Summary of the method: as §1

COR-L23 = test system: COR-L23
Summary of the method: as §1

LOU-NH91 = test system: LOU-NH91
Summary of the method: as §1

HCC-44 = test system: HCC-44
Summary of the method: as §1

EKVX = test system: EKVX
Summary of the method: as §1

HOP-62 = test system: HOP-62
Summary of the method: as §1

LXF-289 = test system: LXF-289
Summary of the method: as §1

NCI-H1734 = test system: NCI-H1734
Summary of the method: as §1

BEN = test system: BEN
Summary of the method: as §1

Q: Which results are given for `C=C1C(=O)O[C@@H](CCCCCCCC)[C@@H]1C(=O)O` [C-75] + Nc1nc2[nH]cc(CCc3ccc(C(=O)N[C@@H](CCC(=O)O)C(=O)O)cc3)c2c(=O)[nH]1 [Pemetrexed] (partner 0.2 µM)?
A: relative viability (NCI-H522): 0.879; relative viability (HCC-78; first compound 0.08 µM): 0.829; relative viability (HCC-78; first compound 0.253 µM): 0.902; relative viability (HCC-78; first compound 0.8 µM): 0.839; relative viability (HCC-78; first compound 8 µM): 0.893; relative viability (NCI-H1793; first compound 0.08 µM): 0.702; relative viability (NCI-H1793; first compound 0.253 µM): 0.954; relative viability (NCI-H1793; first compound 2.53 µM): 0.59; relative viability (NCI-H1793; first compound 8 µM): 0.958; relative viability (A-427; first compound 0.08 µM): 0.949; relative viability (A-427; first compound 0.253 µM): 0.774; relative viability (A-427; first compound 0.8 µM): 0.813; relative viability (A-427; first compound 2.53 µM): 0.71; relative viability (A-427; first compound 8 µM): 0.871; relative viability (COR-L23; first compound 0.08 µM): 0.197; relative viability (COR-L23; first compound 0.253 µM): 0.197; relative viability (COR-L23; first compound 0.8 µM): 0.2; relative viability (COR-L23; first compound 2.53 µM): 0.2; relative viability (COR-L23; first compound 8 µM): 0.198; relative viability (LOU-NH91; first compound 0.08 µM): 0.308; relative viability (LOU-NH91; first compound 0.253 µM): 0.362; relative viability (LOU-NH91; first compound 0.8 µM): 0.386; relative viability (LOU-NH91; first compound 8 µM): 0.378; relative viability (HCC-44; first compound 0.08 µM): 0.58; relative viability (HCC-44; first compound 0.253 µM): 0.698; relative viability (HCC-44; first compound 0.8 µM): 0.683; relative viability (HCC-44; first compound 2.53 µM): 0.572; relative viability (HCC-44; first compound 8 µM): 0.634; relative viability (EKVX; first compound 0.08 µM): 0.45; relative viability (EKVX; first compound 0.253 µM): 0.491; relative viability (EKVX; first compound 0.8 µM): 0.366; relative viability (EKVX; first compound 8 µM): 0.358; relative viability (HOP-62; first compound 0.08 µM): 0.365; relative viability (HOP-62; first compound 0.253 µM): 0.306; relative viability (HOP-62; first compound 0.8 µM): 0.291; relative viability (HOP-62; first compound 2.53 µM): 0.268; relative viability (HOP-62; first compound 8 µM): 0.311; relative viability (LXF-289; first compound 0.08 µM): 0.834; relative viability (LXF-289; first compound 0.253 µM): 0.906; relative viability (LXF-289; first compound 0.8 µM): 0.858; relative viability (LXF-289; first compound 2.53 µM): 0.886; relative viability (LXF-289; first compound 8 µM): 0.904; relative viability (NCI-H1734; first compound 0.08 µM): 0.382; relative viability (NCI-H1734; first compound 0.253 µM): 0.396; relative viability (NCI-H1734; first compound 0.8 µM): 0.41; relative viability (NCI-H1734; first compound 2.53 µM): 0.359; relative viability (NCI-H1734; first compound 8 µM): 0.361; relative viability (BEN; first compound 0.08 µM): 0.753; relative viability (BEN; first compound 0.253 µM): 0.816; relative viability (BEN; first compound 0.8 µM): 0.688; relative viability (BEN; first compound 2.53 µM): 0.842; relative viability (BEN; first compound 8 µM): 0.766
